Assay results as given in patent US10682409B2, “Therapeutic treatment” (priority 2012, dated 2020).

Columns and labels:
[1] = Example 2 case study: child with ADHD on methylphenidate, then Periactin (height, weight, percentiles, attentiveness); type: in vivo, human
Text: Case study: A child was presented by their parents for symptoms of attention deficit hyperactivity disorder. Their size at evaluation was 4′1¾″ and 50 lbs, corresponding to the 81st and 50th percentiles when compared to girls their age. […] At three months following the initiation of treatment for ADHD, the child was 4′2⅞″ and 50½ lbs, corresponding to the 85th and 34rd percentiles when compared to girls their age. At one year, they were 4′4⅜″ and 53 lbs, corresponding to the 84th and 36th percentiles when compared to girls their age. At two years they were 4′5¾″ and 54 lbs, corresponding to the 72nd and 17th percentiles when compared to girls their age. At four years of treatment they were 4′7⅜″ and 59 lbs, corresponding to 70th and 14th percentiles when compared to girls their age. At five years of treatment they were 4′9⅞″ and 64½ lbs, corresponding to 59th and 7th percentiles when compared to girls their age.
The child was then prescribed Periactin at a dosage of 2 mg b.i.d. to attempt to stimulate appetite. The dose was taken in the morning and then in the afternoon. After one year they were 4′11½″ and 72½ lbs, corresponding to 33rd and 5th percentiles when compared to girls their age. The child was then prescribed Periactin at a dose of 4 mg b.i.d. After two months on this dose, they were 5′¼″ and 76 lbs, corresponding to 37th and 8th percentiles when compared to girls their age. At 8 months on this dose, they were 5′½″ and 80 lbs, corresponding to 41st and 8th percentiles when compared to girls their age. At one year on this dose, they were 5′2¾″ and 89½ lbs, corresponding to 51st and 17th percentiles when compared to girls their age. At 18 months on this dose, they were 5′3⅝″ and 99½ lbs, corresponding to 56th and 30th percentiles when compared to girls their age. Additionally, the attentiveness of the child increase following the prescription of Periactin as they increased their food intake during the day.

[2] = system: patients suffering from ADHD; assay: Clinical Global Impression-Severity scale (CGI-S), Patients A-H; type: in vivo, human
Procedure: In an embodiment, attentiveness is measured using the Clinical Global Impression rating scales to measure symptom severity, treatment response and the efficacy of treatments in treatment studies of patients with mental disorders (Guy, W., 1976). In an embodiment, attentiveness is measure using the Clinical Global Impression-Severity scale (“CGI-S”). In an embodiment, CGI-S is a 7-point scale that requires the clinician to rate the severity of the patient's illness at the time of assessment, relative to the clinician's past experience with patients who have the same diagnosis. Considering total clinical experience, a patient is assessed on severity of mental illness at the time of rating 1, normal, not at all ill; 2, borderline mentally ill; 3, mildly ill; 4, moderately ill; 5, markedly ill; 6, severely ill; or 7, extremely ill. In an embodiment, attentiveness is measured using the Clinical Global Impression-Improvement scale (“CGI-I”). […] In an embodiment, attentiveness is measured using the Clinical Global Impression-Efficacy Index (“CGI-E”).
The age range of the patients was from 6-15 years of age, with a mean age at the start of treatment for ADHD of 8.4 years of age. The mean age at the start of the combination treatment wherein the patient was administered an amphetamine or methylphenidate and an appetite stimulant was 10.3 years of age. The mean treatment period for the eight patients was 1,108 days with a mean of 2.55 ADHD medication changes during the treatment period. Attentiveness in the eight patients was measured using CGI-S and CGI-I. Patients weight and height velocity were measured to identify a difference in weight and height gain prior to and after addition of an appetite stimulant to the treatment for ADHD. Weight velocity was calculated by taking three time points, time 0 upon initiation of medication to treat ADHD, time 1 addition of an appetite stimulant, time 2 the last data point after initiation of combination treatment. The formula to calculate weight velocity for stimulant alone is (weightT1−weight T0)/days from Time 0 to time 1. The formula to calculate weight velocity for combination treatment is (weightT2−weight T1)/days from time 1 to time 2.

[3] = Periactin 2 mg b.i.d., after one year
[4] = Periactin 4 mg b.i.d., 8 months
[5] = Periactin 4 mg b.i.d., 18 months
[6] = Periactin 4 mg b.i.d., one year
[7] = Periactin 4 mg b.i.d., two months

Q: For `CN1CCC(=C2c3ccccc3C=Cc3ccccc32)CC1.Cl` [Periactin, 4-(5H-dibenzo[a,d]cyclohepten-5-ylidene)-1-methylpiperidine hydrochloride], which “height percentile compared to girls their age” value (from here on “height percentile”) [1, 3] is on record?
A: 33 percentile

Q: And the “weight percentile compared to girls their age” value (“weight percentile” below) [1, 3]?
A: 5 percentile

Q: What about the “height percentile” value [1, 4] of the same compound?
A: 41 percentile

Q: What about the weight [1, 4] of the same compound?
A: 80 lbs

Q: And the “weight percentile” value [1, 4]?
A: 8 percentile

Q: And the “height percentile” value [1, 5]?
A: 56 percentile

Q: And the “weight percentile” value [1, 5]?
A: 30 percentile

Q: And the “height percentile” value [1, 6]?
A: 51 percentile

Q: And the “weight percentile” value [1, 6]?
A: 17 percentile

Q: And the “height percentile” value [1, 7]?
A: 37 percentile

Q: And the weight [1, 7]?
A: 76 lbs

Q: What about the “weight percentile” value [1, 7] of the same compound?
A: 8 percentile

Q: What about the attentiveness ([1]; following the prescription of Periactin) of the same compound?
A: increase

Q: And the CGI-S score ([2]; Patient A, Periactin 4 mg b.i.d. added to Concerta, FIG. 5)?
A: 3

Q: What about the CGI-S score ([2]; Patient B, Focalin XR 15 mg and Periactin 4 mg b.i.d. (remained), FIG. 7) of the same compound?
A: 3

Q: What about the CGI-S score ([2]; Patient B, Focalin XR raised to 30 mg at day 1279 with Periactin, FIG. 7) of the same compound?
A: 2

Q: What about the CGI-S score ([2]; Patient C, Concerta 36 mg and Periactin 4 mg b.i.d., FIG. 9) of the same compound?
A: 4

Q: What about the CGI-S score ([2]; Patient D, Concerta 18 mg and Periactin 2 mg in the morning, FIG. 11) of the same compound?
A: 5

Q: And the CGI-S score ([2]; Patient D, Concerta increased to 27 mg with Periactin, FIG. 11)?
A: 4

Q: And the CGI-S score ([2]; Patient E, Focalin XR 20 mg and Periactin 4 mg in the morning)?
A: 4

Q: What about the CGI-S score ([2]; Patient E, Periactin dosed b.i.d. with Focalin XR) of the same compound?
A: 3

Q: And the CGI-S score ([2]; Patient G, Focalin XR 15 mg and Periactin 4 mg b.i.d., FIG. 17)?
A: 3

Q: And the “CGI-S score versus prior examination” value ([2]; Patient H, Vvyanase 40 mg and Periactin 2 mg b.i.d., day 200, FIG. 19)?
A: had not changed

Q: What about the “lowering of the CGI-S of a patient by addition of the appetite stimulant” value ([2]; Patients A-H, versus same patient prior to appetite stimulant, FIG. 20, 21) of the same compound?
A: ≥ 1
